Tests used:
[1] = target: T1, human Werner helicase (WRN, Uniprot Q14191, amino acids 517-1235 with L1074F point mutation; WRN-BV08) (Homo sapiens, UniProt Q14191, L1074F); experiment: WRN (BV08) ADP-Glo assay; type: biochemical; conditions: WRN-BV08 (aa 517-1235, L1074F); read-out: ADP-Glo_hWRN_IC50
T1 construct: Uniprot Q14191, amino acids 517-1235 with L1074F point mutation; 8xHis (C, cleaved yes); TEV cleavage site (ENLYFQG) (C, cleaved yes); made in house; host or cells: Sf9 insect cells (baculovirus, pFastBac)
Outline: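 ADP formed by untagged WRN helicase fragment (aa 517-1235, L1074F; 0.15 nM final) on 0.1 nM DNA duplex with […], 60 min at 25 °C after 15 min compound preincubation, pH 7.5 Bicine buffer. Luminescent ADP-Glo readout; IC50 from 4-parameter fit of % inhibition.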

[2] = test system: p21 induction in HCT 116 cells; experiment: p21 induction in cells (In-Cell Western, p21/GAPDH ratio); type: cell-based; conditions: Homo sapiens, HCT-116, 24 h, 24 h compound incubation, read-out: P21_EC50
Outline: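 p21 and GAPDH signals quantified by In-Cell Western after 24 h compound exposure of HCT 116 cells (11 concentrations, 2-fold steps, usual top 10 μM). Percent activation from p21/GAPDH ratio relative to DMSO (low) and internal WRN inhibitor (high) controls; curve fit gave EC50.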

T1 sequence (Q14191 with tags, fused parts or gaps L1074F): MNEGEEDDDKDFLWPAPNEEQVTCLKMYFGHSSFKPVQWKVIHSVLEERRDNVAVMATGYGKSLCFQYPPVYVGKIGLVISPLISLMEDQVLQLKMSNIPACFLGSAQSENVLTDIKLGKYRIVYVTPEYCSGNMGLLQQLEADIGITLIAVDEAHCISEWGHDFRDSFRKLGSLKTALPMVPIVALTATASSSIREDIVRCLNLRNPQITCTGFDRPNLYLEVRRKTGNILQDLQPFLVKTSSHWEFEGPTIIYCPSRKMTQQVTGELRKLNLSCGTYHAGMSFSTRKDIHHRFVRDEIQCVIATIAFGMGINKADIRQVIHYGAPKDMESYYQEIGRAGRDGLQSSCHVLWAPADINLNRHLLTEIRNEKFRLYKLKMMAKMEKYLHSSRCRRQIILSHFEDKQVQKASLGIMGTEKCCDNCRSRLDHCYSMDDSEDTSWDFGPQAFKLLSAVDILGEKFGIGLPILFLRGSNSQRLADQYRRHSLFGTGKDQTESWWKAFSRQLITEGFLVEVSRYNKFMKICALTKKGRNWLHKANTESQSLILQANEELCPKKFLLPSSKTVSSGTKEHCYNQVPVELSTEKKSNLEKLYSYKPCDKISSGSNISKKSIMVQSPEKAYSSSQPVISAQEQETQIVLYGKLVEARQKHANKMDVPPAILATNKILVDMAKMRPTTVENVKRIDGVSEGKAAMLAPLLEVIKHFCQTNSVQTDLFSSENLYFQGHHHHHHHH

Row | Structure (SMILES) | IC50 [1] | EC50 [2]
1 | CCc1c(N2CCN(C(=O)c3ncnc(C)c3O)[C@H]3CC[C@@H]32)c(=O)n2nc(-c3ccnc(OC)c3)nc2n1CC(=O)NC12CC(C3CC3)(C1)C2 [I-208, N-(3-cyclopropylbicyclo[1.1.1]pentan-1-yl)-2-(5-ethyl-6-((1S,6S)-5-(5-hydroxy-6-methylpyrimidine-4-carbonyl)-2,5-diazabicyclo[4.2.0]octan-2-yl)-2-(2-methoxypyridin-4-yl)-7-oxo-[1,2,4]triazolo[1,5-a]pyrimidin-4(7H)-yl)acetamide] | 0.005 to 0.05 µM | ≤ 0.5 µM
2 | CCc1c(N2CCN(C(=O)c3c(OC)ncc(C)c3O)CC2)c(=O)c2nc(N(C)C)cnc2n1CC(=O)NC12CC(C(F)(F)F)(C1)C2 [I-240, 2-(2-(dimethylamino)-6-ethyl-7-(4-(4-hydroxy-2-methoxy-5-methylnicotinoyl)piperazin-1-yl)-8-oxopyrido[2,3-b]pyrazin-5(8H)-yl)-N-(3-(trifluoromethyl)bicyclo[1.1.1]pentan-1-yl)acetamide] | 0.05 to 0.1 µM | > 5 µM
3 | CCc1c(N2CCN(C(=O)c3ncnc(C)c3O)[C@H]3CC[C@@H]32)c(=O)n2nc(C3=CCOCC3)nc2n1CC(=O)NC12CC(C3CC3)(C1)C2 [I-225, N-(3-cyclopropylbicyclo[1.1.1]pentan-1-yl)-2-(2-(3,6-dihydro-2H-pyran-4-yl)-5-ethyl-6-((1S,6S)-5-(5-hydroxy-6-methylpyrimidine-4-carbonyl)-2,5-diazabicyclo[4.2.0]octan-2-yl)-7-oxo-[1,2,4]triazolo[1,5-a]pyrimidin-4(7H)-yl)acetamide] | 0.005 to 0.05 µM | ≤ 0.5 µM
4 | CCc1c(N2CCN(C(=O)c3c(O)ccc4ncoc34)CC2)c(=O)n2nc(-c3ccnc(OC)c3)nc2n1CC(=O)NC12CC(C3COC3)(C1)C2 [I-46, 2-(5-ethyl-6-(4-(6-hydroxybenzo[d]oxazole-7-carbonyl)piperazin-1-yl)-2-(2-methoxypyridin-4-yl)-7-oxo-[1,2,4]triazolo[1,5-a]pyrimidin-4(7H)-yl)-N-(3-(oxetan-3-yl)bicyclo[1.1.1]pentan-1-yl)acetamide] | 0.1 to 0.5 µM | > 5 µM
5 | CCc1c(N2CCN(C(=O)c3ncnc(C)c3O)CC2)c(=O)n2nc(-c3ccnc(OC)c3)nc2n1CC(=O)N[C@H]1CC[C@H](C(F)(F)F)CC1 [I-242, 2-(5-ethyl-6-(4-(5-hydroxy-6-methylpyrimidine-4-carbonyl)piperazin-1-yl)-2-(2-methoxypyridin-4-yl)-7-oxo-[1,2,4]triazolo[1,5-a]pyrimidin-4(7H)-yl)-N-((1r,4r)-4-(trifluoromethyl)cyclohexyl)acetamide] | 0.1 to 0.5 µM | > 5 µM
6 | CCc1c(N2CCN(C(=O)c3ncnc(C)c3O)[C@H]3CC[C@@H]32)c(=O)c2nc(N(C)C)cnc2n1CC(=O)NC1CC2(CCC2)C1 [I-229, 2-(2-(dimethylamino)-6-ethyl-7-((1S,6S)-5-(5-hydroxy-6-methylpyrimidine-4-carbonyl)-2,5-diazabicyclo[4.2.0]octan-2-yl)-8-oxopyrido[2,3-b]pyrazin-5(8H)-yl)-N-(spiro[3.3]heptan-2-yl)acetamide] | 0.005 to 0.05 µM | 2 to 5 µM
7 | CCc1c(N2CCN(C(=O)CC3CCCC(=O)N3)[C@H]3CC[C@@H]32)c(=O)c2nn(C3=CCOCC3)nc2n1CC(=O)NC12CC(C(C)C)(C1)C2 (stereo partly drawn) [I-235, 2-(2-(3,6-dihydro-2H-pyran-4-yl)-5-ethyl-7-oxo-6-((1S,6S)-5-(2-(6-oxopiperidin-2-yl)acetyl)-2,5-diazabicyclo[4.2.0]octan-2-yl)-2,7-dihydro-4H-[1,2,3]triazolo[4,5-b]pyridin-4-yl)-N-(3-isopropylbicyclo[1.1.1]pentan-1-yl)acetamide] | 0.005 to 0.05 µM | > 5 µM
8 | CCc1c(N2CCN(C(=O)c3c(O)ccc4ncoc34)CC2)c(=O)n2nc(-c3ccnc(OC)c3)nc2n1CC(=O)NC12CC(C(F)(F)F)(C1)C2 [I-10, 2-(5-ethyl-6-(4-(6-hydroxybenzo[d]oxazole-7-carbonyl)piperazin-1-yl)-2-(2-methoxypyridin-4-yl)-7-oxo-[1,2,4]triazolo[1,5-a]pyrimidin-4(7H)-yl)-N-(3-(trifluoromethyl)bicyclo[1.1.1]pentan-1-yl)acetamide] | 0.005 to 0.05 µM | ≤ 0.5 µM
9 | CCc1c(N2CCN(C(=O)c3ncnc(C)c3O)[C@H]3CC[C@@H]32)c(=O)c2c(nnn2C2CC2)n1CC(=O)NC12CC(C3CC3)(C1)C2 [I-245, 2-(1-cyclopropyl-5-ethyl-6-((1S,6S)-5-(5-hydroxy-6-methylpyrimidine-4-carbonyl)-2,5-diazabicyclo[4.2.0]octan-2-yl)-7-oxo-1,7-dihydro-4H-[1,2,3]triazolo[4,5-b]pyridin-4-yl)-N-(3-cyclopropylbicyclo[1.1.1]pentan-1-yl)acetamide] | 0.1 to 0.5 µM | 2 to 5 µM
10 | CCc1c(N2CCN(C(=O)c3ncnc(C)c3O)[C@H]3CC[C@@H]32)c(=O)c2nc(N(C)C)cnc2n1CC(=O)NC12CC(C3CCC3)(C1)C2 [I-226, N-(3-cyclobutylbicyclo[1.1.1]pentan-1-yl)-2-(2-(dimethylamino)-6-ethyl-7-((1S,6S)-5-(5-hydroxy-6-methylpyrimidine-4-carbonyl)-2,5-diazabicyclo[4.2.0]octan-2-yl)-8-oxopyrido[2,3-b]pyrazin-5(8H)-yl)acetamide] | 0.005 to 0.05 µM | ≤ 0.5 µM
11 | CCc1c(N2CCN(C(=O)c3c(O)ccc4ncoc34)CC2)c(=O)n2nc(-c3ccnc(OC)c3)nc2n1CC(=O)NC12CC(C(C)C)(C1)C2 [I-35, 2-(5-ethyl-6-(4-(6-hydroxybenzo[d]oxazole-7-carbonyl)piperazin-1-yl)-2-(2-methoxypyridin-4-yl)-7-oxo-[1,2,4]triazolo[1,5-a]pyrimidin-4(7H)-yl)-N-(3-isopropylbicyclo[1.1.1]pentan-1-yl)acetamide] | ≤ 0.005 µM | ≤ 0.5 µM
12 | CCc1c(C2=CCN(C(=O)c3ncnc(C)c3O)CC2C)c(=O)c2nn(-c3ccnc(OC)c3)nc2n1CC(=O)NC12CC(C(C)C)(C1)C2 (single isomer, unassigned) [I-97] | 0.005 to 0.05 µM | ≤ 0.5 µM
13 | CCc1c(N2CCN(C(=O)c3cc(C(C)(C)O)cnc3OC)[C@H]3CC[C@@H]32)c(=O)c2nn(C3=CCOCC3)nc2n1CC(=O)NC12CC(C3CC3)(C1)C2 [I-221, N-(3-cyclopropylbicyclo[1.1.1]pentan-1-yl)-2-(2-(3,6-dihydro-2H-pyran-4-yl)-5-ethyl-6-((1S,6S)-5-(5-(2-hydroxypropan-2-yl)-2-methoxynicotinoyl)-2,5-diazabicyclo[4.2.0]octan-2-yl)-7-oxo-2,7-dihydro-4H-[1,2,3]triazolo[4,5-b]pyridin-4-yl)acetamide] | 0.005 to 0.05 µM | 2 to 5 µM
14 | CCc1c(N2CCN(C(=O)c3c(O)ccc4ncoc34)CC2)c(=O)c2sc(-c3ccnc(OC)c3)nc2n1CC(=O)NC12CC(C(F)(F)F)(C1)C2 [I-37, 2-(5-ethyl-6-(4-(6-hydroxybenzo[d]oxazole-7-carbonyl)piperazin-1-yl)-2-(2-methoxypyridin-4-yl)-7-oxothiazolo[4,5-b]pyridin-4(7H)-yl)-N-(3-(trifluoromethyl)bicyclo[1.1.1]pentan-1-yl)acetamide] | 0.005 to 0.05 µM | 0.5 to 2 µM
